Reference: ChEMBL document CHEMBL1201862, “PubChem BioAssay data set” (2004)
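Where inhibition never reached the appropriate level, the endpoint shown equals the highest concentration tested. Otherwise, values were interpolated linearly from a five-concentration, 48-hour dose response in 96-well plates. GI50 marks 50% less growth.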 Calls of active or inactive are those of the source. No stated cut-off is given here; in the data, active = GI50 up to about 1.1 µM and inactive = higher.

How the values were obtained:
Experiment in all cases: NCI-60 cell line screen, 48 h
TK-10 = system: TK-10
BT-549 = system: BT-549
OVCAR-3 = system: OVCAR-3
U-251 = system: U-251
HCT-15 = system: HCT-15
EKVX = system: EKVX
SNB-75 = system: SNB-75
HOP-92 = system: HOP-92
UO-31 = system: UO-31
SK-MEL-2 = system: SK-MEL-2
UACC-257 = system: UACC-257
SR = system: SR
MOLT-4 = system: MOLT-4
NCI/ADR-RES = system: NCI/ADR-RES
ACHN = system: ACHN
PC-3 = system: PC-3
NCI-H23 = system: NCI-H23
SK-MEL-28 = system: SK-MEL-28
HT-29 = system: HT-29
SF-268 = system: SF-268
RPMI-8226 = system: RPMI-8226
KM12 = system: KM12
OVCAR-5 = system: OVCAR-5
CAKI-1 = system: CAKI-1
Hs-578T = system: Hs-578T
K562 = system: K562
SNB-19 = system: SNB-19
CCRF-CEM = system: CCRF-CEM
A498 = system: A498
IGROV-1 = system: IGROV-1
SW-620 = system: SW-620
MDA-MB-435 = system: MDA-MB-435
HCC 2998 = system: HCC 2998
NCI-H226 = system: NCI-H226
OVCAR-8 = system: OVCAR-8
SN12C = system: SN12C
HOP-62 = system: HOP-62
LOX IMVI = system: LOX IMVI
UACC-62 = system: UACC-62
MDA-MB-231 = system: MDA-MB-231
SF-539 = system: SF-539
NCI-H522 = system: NCI-H522
M14 = system: M14
T47D = system: T47D
786-0 = system: 786-0
SK-MEL-5 = system: SK-MEL-5
SF-295 = system: SF-295
A549 = system: A549
MDA-N = system: MDA-N
HCT-116 = system: HCT-116
COLO 205 = system: COLO 205
MCF7 = system: MCF7
NCI-H460 = system: NCI-H460
DU-145 = system: DU-145
SK-OV-3 = system: SK-OV-3
Malme-3M = system: Malme-3M
RXF 393 = system: RXF 393
HL-60 = system: HL-60
OVCAR-4 = system: OVCAR-4

`C=C1C[C@@H]2O[C@H]3[C@H]4[C@@H](C[C@@H](C)[C@@H](OC(C)=O)[C@H]42)[C@@H](C)CO[C@@]3(C)[C@H](OC(=O)CCCCCCC)CC1=O` was tested, and the GI50 (TK-10) was 17.1 µM (inactive), the GI50 (BT-549) was 18.1 µM (inactive) and the GI50 (OVCAR-3) was 18.2 µM (inactive). For the same compound, the GI50 (U-251) was 16.8 µM (inactive), the GI50 (HCT-15) was 14.1 µM and the GI50 (EKVX) was 15.5 µM (inactive). For the same compound, the GI50 (SNB-75) was 12.1 µM (inactive), the GI50 (HOP-92) was > 10 µM (inactive) and the GI50 (UO-31) was 15.6 µM (inactive). The GI50 (SK-MEL-2) was 19.2 µM (inactive), the GI50 (UACC-257) was 14.4 µM (inactive) and the GI50 (SR) was 16 µM (inactive). The GI50 (MOLT-4) was 18.7 µM (inactive), the GI50 (NCI/ADR-RES) was 17.9 µM (inactive) and the GI50 (ACHN) was 16 µM (inactive). The GI50 (PC-3) was 9.82 µM (inactive), the GI50 (NCI-H23) was 20.6 µM (inactive) and the GI50 (SK-MEL-28) was 14.9 µM (inactive). For the same compound, the GI50 (HT-29) was 20.9 µM (inactive), the GI50 (SF-268) was 18.8 µM (inactive) and the GI50 (RPMI-8226) was 2.64 µM (inactive). For the same compound, the GI50 (KM12) was 12.1 µM (inactive), the GI50 (OVCAR-5) was 7.29 µM (inactive) and the GI50 (CAKI-1) was 19.4 µM (inactive). The GI50 (Hs-578T) was 17.1 µM (inactive), the GI50 (K562) was > 10 µM (inactive) and the GI50 (SNB-19) was 26.5 µM (inactive). For the same compound, the GI50 (CCRF-CEM) was 5.85 µM (inactive), the GI50 (A498) was 17.2 µM (inactive) and the GI50 (IGROV-1) was 21.5 µM (inactive). For the same compound, the GI50 (SW-620) was 15.2 µM (inactive), the GI50 (MDA-MB-435) was 16.5 µM (inactive) and the GI50 (HCC 2998) was 17 µM (inactive). The GI50 (NCI-H226) was 21.2 µM (inactive), the GI50 (OVCAR-8) was 13.6 µM (inactive) and the GI50 (SN12C) was 16 µM (inactive). For the same compound, the GI50 (HOP-62) was 16 µM (inactive), the GI50 (LOX IMVI) was 16.5 µM (inactive) and the GI50 (UACC-62) was 16.5 µM (inactive). The GI50 (MDA-MB-231) was 20.8 µM (inactive), the GI50 (SF-539) was 22 µM (inactive) and the GI50 (NCI-H522) was 19.6 µM (inactive). The GI50 (M14) was 15.6 µM (inactive), the GI50 (T47D) was 15.4 µM (inactive) and the GI50 (786-0) was 15.7 µM (inactive). For the same compound, the GI50 (SK-MEL-5) was 15 µM (inactive), the GI50 (SF-295) was 19.5 µM (inactive) and the GI50 (A549) was 18.4 µM (inactive). The GI50 (MDA-N) was 16.8 µM (inactive), the GI50 (HCT-116) was 15.1 µM (inactive) and the GI50 (COLO 205) was 13.9 µM (inactive). For the same compound, the GI50 (MCF7) was 18.5 µM (inactive), the GI50 (NCI-H460) was 11.9 µM (inactive) and the GI50 (DU-145) was 17.6 µM (inactive).
`CSc1ncnc2c1ncn2C1OC(CO)C(O)OC1O` (stereo unspecified) was tested, and the GI50 (TK-10) was 0.219 µM (active), the GI50 (BT-549) was 1.83 µM (inactive) and the GI50 (OVCAR-3) was 0.348 µM (active). The GI50 (U-251) was 9.35 µM (inactive), the GI50 (HCT-15) was 0.506 µM and the GI50 (EKVX) was 0.624 µM (active). For the same compound, the GI50 (SNB-75) was 10.9 µM (inactive), the GI50 (HOP-92) was 0.822 µM (active) and the GI50 (UO-31) was 1.79 µM (inactive). The GI50 (SK-MEL-2) was 2.76 µM (inactive), the GI50 (SK-OV-3) was 20 µM (inactive) and the GI50 (Malme-3M) was 14 µM (inactive). The GI50 (UACC-257) was 0.902 µM (active), the GI50 (RXF 393) was 11.7 µM (inactive) and the GI50 (SR) was 0.619 µM (active). For the same compound, the GI50 (MOLT-4) was 0.281 µM (active), the GI50 (NCI/ADR-RES) was 2.56 µM (inactive) and the GI50 (ACHN) was 0.643 µM (active). The GI50 (PC-3) was 2.26 µM (inactive), the GI50 (NCI-H23) was 0.721 µM (active) and the GI50 (SK-MEL-28) was 13.7 µM (inactive). The GI50 (HT-29) was 0.449 µM (active), the GI50 (SF-268) was 7.69 µM (inactive) and the GI50 (RPMI-8226) was 1.06 µM (active). For the same compound, the GI50 (KM12) was 0.789 µM (active), the GI50 (OVCAR-5) was 2.01 µM (inactive) and the GI50 (CAKI-1) was 2.58 µM (inactive). For the same compound, the GI50 (Hs-578T) was 20.9 µM (inactive), the GI50 (K562) was 1.16 µM (inactive) and the GI50 (SNB-19) was 10.7 µM (inactive). For the same compound, the GI50 (CCRF-CEM) was 0.0579 µM (active), the GI50 (A498) was 1.11 µM (active) and the GI50 (IGROV-1) was 0.897 µM (active). The GI50 (SW-620) was 1.51 µM (inactive), the GI50 (MDA-MB-435) was 1.7 µM (inactive) and the GI50 (OVCAR-8) was 2.12 µM (inactive). For the same compound, the GI50 (SN12C) was 1.06 µM (active), the GI50 (HOP-62) was 3.7 µM (inactive) and the GI50 (LOX IMVI) was 0.361 µM (active). The GI50 (UACC-62) was 2.96 µM (inactive), the GI50 (MDA-MB-231) was 0.396 µM (active) and the GI50 (SF-539) was 1.73 µM (inactive). For the same compound, the GI50 (NCI-H522) was 3.34 µM (inactive), the GI50 (M14) was 1.14 µM (inactive) and the GI50 (HL-60) was 1.97 µM (inactive). The GI50 (T47D) was 0.612 µM (active), the GI50 (786-0) was 0.785 µM (active) and the GI50 (SK-MEL-5) was 3.73 µM (inactive). The GI50 (SF-295) was 13.6 µM (inactive), the GI50 (A549) was 0.662 µM (active) and the GI50 (MDA-N) was 2.24 µM (inactive). For the same compound, the GI50 (OVCAR-4) was 10.7 µM (inactive), the GI50 (HCT-116) was 0.4 µM (active) and the GI50 (COLO 205) was 1.8 µM (inactive). The GI50 (MCF7) was 0.262 µM (active), the GI50 (NCI-H460) was 0.424 µM (active) and the GI50 (DU-145) was 0.697 µM (active).
